{
  "source": "paper PMC8320612",
  "about": "(Current Research in Toxicology, 2021)",
  "key": {"[1]": {"target": "T1, thyroid peroxidase (TPO), rat thyroid microsomes (Rattus norvegicus, UniProt P14650)", "T1 sequence (P14650 32-914)": "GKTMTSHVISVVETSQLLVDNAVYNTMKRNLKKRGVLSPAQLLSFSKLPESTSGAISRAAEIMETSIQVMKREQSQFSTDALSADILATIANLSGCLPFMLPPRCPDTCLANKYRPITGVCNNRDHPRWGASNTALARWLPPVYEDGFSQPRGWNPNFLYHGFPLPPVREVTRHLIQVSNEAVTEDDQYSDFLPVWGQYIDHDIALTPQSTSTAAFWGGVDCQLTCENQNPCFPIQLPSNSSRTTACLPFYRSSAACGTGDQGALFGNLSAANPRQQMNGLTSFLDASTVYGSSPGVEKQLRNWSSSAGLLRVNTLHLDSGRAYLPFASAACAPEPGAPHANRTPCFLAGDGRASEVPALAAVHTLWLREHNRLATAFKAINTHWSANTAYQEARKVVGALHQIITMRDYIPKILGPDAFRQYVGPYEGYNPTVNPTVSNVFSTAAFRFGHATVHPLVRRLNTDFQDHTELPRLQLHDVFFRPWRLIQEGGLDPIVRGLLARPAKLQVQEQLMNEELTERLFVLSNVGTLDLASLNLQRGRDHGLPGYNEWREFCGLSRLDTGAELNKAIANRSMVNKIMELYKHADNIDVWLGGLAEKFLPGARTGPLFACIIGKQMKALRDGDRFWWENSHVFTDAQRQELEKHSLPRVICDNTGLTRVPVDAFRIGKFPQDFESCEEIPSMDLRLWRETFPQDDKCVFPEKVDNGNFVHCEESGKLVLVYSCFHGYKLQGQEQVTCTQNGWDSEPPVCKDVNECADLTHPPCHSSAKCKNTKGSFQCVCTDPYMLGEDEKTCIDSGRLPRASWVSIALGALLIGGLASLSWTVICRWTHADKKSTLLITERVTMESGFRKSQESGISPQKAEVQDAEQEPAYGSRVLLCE", "assay": "TPO activity assay, MIT to DIT monoiodination, LC-MS/MS", "type": "biochemical", "conditions": "result in words"}, "[2]": {"target": "T1, thyroid peroxidase (TPO), rat thyroid microsomes", "assay": "Battery of TPO assays, summary of IC50 across reactions", "type": "biochemical"}},
  "data": [
    {"smiles": "O=c1c(-c2ccc(O)cc2)coc2cc(O)ccc12", "note": "[DZN, Daidzein]", "values": [
      {"measurement": "Effect on MIT to DIT iodination", "setting": "[1]", "result": "no adverse effects"},
      {"measurement": "IC50", "setting": "[2]", "result": "19.7 to 57.3", "unit": "µM"}
    ]}
  ]
}
